One experiment deals with DLBCL cell lines. In kind it is cell-based. As to conditions: Figure 6D and Figure S7D. From the text:
(§1) GraphPad Prism software was used to determine GI50 values.

A further experiment concerns HBL1 cells. In kind it is cell-based.
From the text: as §1

The subject of experiment [1] is SU-DHL6 cell xenograft tumors. Briefly: Mouse xenograft model. In kind it is in vivo, NCG mice. Particulars: DRI-BCL10-P4 10 mg/kg Q.d. or BCL10-Ctl 5 mg/kg Q.d., i.v.; n=8; p=0.049, Mann-Whitney U test. The method, then:
Mouse xenograft experiments:
Six-week-old female NOD prkdc-/- IL-2Rg-/- (NCG) mice purchased from GemPharmatech Co., Lt d we re raised in a SPF- level Laboratory Animal Room. Low -passage 5x106 human TMD8, SU-DHL- 6 or 1x10^7 OCl-LY1 cells at 100μl were premixed with 100μl Matrigel (Corning Biocoat, cat. # 354234) and inoculated subcutaneously into the right flank of mice. When tumors reached an average size of 150 mm3, mice were randomly assigned into treatment groups (10 mg /kg DRI-BCL10- P4) or control groups (5 mg /kg BCL10- Ctl). Peptides were reconstituted in 5% DMSO/PBS and administered by i.v. injection. Tumor volumes were monitored by a digital caliper every other day and calculated using the formula: (smallest diameter2 x largest diameter)/2. Mice were weighed every day and sacrificed at the end of the treatment. T umors and main organs were harvested and we i ghte d at the moment of death. All animal experiments were approved by the Animal Institute Committee of Changhai Hospital, the Second Military Medical University.
Immunohistochemistry (IHC)
Formalin-fixed paraffin -embedded tumor xenografts were sectioned, dewaxed and submitted to antigen retrieval. The anti- Ki67 (proteintech, 27309-1) antibody was used at a 1:500 dilution.
Biotin-conjugated secondary antibodies (MXB biotechnologies, KIT-9710) were used. […]

A further experiment relates to TMD8 and SU-DHL4 cells. Briefly: Apoptosis (annexin V / PI staining). In kind it is cell-based. Particulars: annexin V+/PI- plus annexin V+/PI+, 24 h; two independent experiments. The method, then:
([…]); shBcl10 ([…] TGT […]). Lentivirus production using […]
selected with puromycin (Invitrogen, A1113803) for 2 weeks. Log phase growing cells were seeded […]
The number cells were measured by flow […]
Cells were harvested and RNA was extracted and quantified. Synthesis of cDNA was performed […]
QuantStudio 6 Flex (Applied Biosystems). RNA was normalized by β-Actin or GAPDH mRNA. The following quantitative PCR primers were used: […]
hGAPDH-F: 5′-[…] T […]- 3’ […]
hGAPDH-R: 5’-TACT T TAT […]-3’ […]
hActin- F: 5’-[…]-3’ […]
hActin- R: 5’-TC A […]-3’ […]
hIL10- F: 5’-GGT […] TGTCTGA-3’ […]
hIL10- R: 5’-AGGGAGT […]-3’ […]
hIL6-R: 5’- […]-3 ’. […]
hBcl10-F: 5’-[…] TAGAAA-3’ […]
hBcl10-R: 5’-[…] T-3’ […]
wa sh e d and lysed with RIPA buffer. Biotinylated BCL10 -P4 in cells were determined by immunoblotting with Streptavidin (Cell signaling, cat. #3999S).
Apoptosis and cell cycle:
1:100 dilution for 15 min at room temperature in the dark. Signals from FL1 and FL3 channels were collected by MACSQuant analyzer and data were analyzed using FloJo (Ashland, OR). […]
For cell cycle analysis, cells were washed twice with cold PBS and fixed in 70% ethanol overnight at 4°C. […] DNA content was measured by BD LSRII flow cytometer and data were analyzed in FloJo. […]
All extracts were treated with DNase in column during RNA purification. RNA integrity was determined on an Agilent 2100 Bioanalyzer (Agilent Technologies, SantaClara, CA). […]

For a further experiment, the system named is NF-κB signalling pathway. In words: Western blot of NF-κB pathway proteins (IKKβ, p-IKKβ, IκBα, p-IκBα). In kind it is cell-based. As to conditions: 12 h, indicated concentrations; Figure 6E. The procedure: Cell pellets were lysed in RIPA buffer (50 mM Tris at pH 8.0, 150 mM NaCl, 1% NP-40, 1 mM EDTA, and 1X protease inhibitor cocktail) or RIPA buffer containing 0.1% SDS. Equal amounts of protein extracts were separated by SDS-PAGE and blotted onto polyvinylidene difluoride (PVDF) membranes. The following Antibodies were purchased and used in this study: anti-IκBα (10268-1), anti-IKKβ (20979-1), anti-Bcl2 (12789-1-AP), anti-GAPDH (10494-1-AP), and anti-β-actin (66009-1-AP) were from Proteintech; anti-p-IκBα (2859S), anti-p-IKKβ (2697S), anti-RelB (10544), anti-α-tubulin (5335), anti-PARP (9532S), and anti-CARMA1 (4435) were from Cell Signaling Technology; anti-β-actin (A1978) was from Sigma; anti-Bcl10 (A1106) was from ABclonal; anti-A20 (sc-166692), anti-CYLD (sc-74435), and anti-MALT1 (sc-46677) were from Santa Cruz; anti-HOIL-1 (HPA024185) was from Atlas Antibodies; and anti-Myc (ab9106) was from Abcam.
(In general: Immunoblotting shows a protein as a band on a membrane.)

The record followed here is PMC7546004, “Targeting BCL10 by small peptides for the treatment of B cell lymphoma” (Theranostics, 2020).

Molecules are shown by their SMILES. Square brackets hold non-standard residues; d marks the D form. Peptide text beside a SMILES is read from it.

Usually GI50 stands for the concentration giving 50% growth inhibition. Low readings indicate greater sensitivity of the cells, high ones lower sensitivity of the cells. Regarding `CC[C@@H](C)[C@@H](NC(=O)[C@@H](CCCCN)NC(=O)[C@H](NC(=O)[C@@H](Cc1c[nH]c2ccccc12)NC(=O)[C@@H](Cc1ccccc1)NC(=O)[C@@H](CCC(N)=O)NC(=O)[C@@H](CC(N)=O)NC(=O)[C@@H](CCCNC(=N)N)NC(=O)[C@@H](CCCNC(=N)N)NC(=O)[C@@H](CCSC)NC(=O)[C@@H](CCCCN)NC(=O)[C@@H](Cc1c[nH]c2ccccc12)NC(=O)[C@@H](CCCCN)NC(=O)[C@@H](CCCCN)NC(=O)[C@@H](CCCNC(=N)N)NC(=O)[C@H](NC(=O)[C@@H](CO)NC(=O)[C@@H](CO)NC(=O)[C@@H](CCCNC(=N)N)NC(=O)[C@@H](CCCCN)NC(=O)[C@@H](CCCNC(=N)N)NC(=O)[C@@H](C)NC(=O)CNC(=O)[C@@H](CCCCN)NC(=O)[C@@H](CC(C)C)NC(=O)[C@@H](CC(C)C)NC(=O)[C@@H](CC(=O)O)NC(=O)[C@@H](Cc1ccc(O)cc1)NC(=O)[C@@H](CC(C)C)NC(=O)[C@@H](CCC(N)=O)NC(=O)[C@H](N)CCC(=O)O)[C@H](C)O)[C@H](C)CC)C(=O)N[C@H](CCC(N)=O)C(=O)N[C@H](CCCNC(=N)N)C(=O)N[C@H](CC(=O)O)C(=O)O` [DRI-BCL10-P4] (H-[dE][dQ][dL][dY][dD][dL][dL][dK]G[dA][dR][dK][dR][dS][dS][dT][dR][dK][dK][dW][dK][dM][dR][dR][dN][dQ][dF][dW][dI][dK][dI][dQ][dR][dD]-OH), the “growth of CB-SMOC-dependent cell lines (HBL1, TMD8 and SU-DHL4 cells)” value with DLBCL cell lines is on record as “selectively suppressed the growth of CB-SMOC-dependent cell lines”. Besides, the GI50 in the experiment on HBL1 cells was found to be 6.78 ± 3.7 µM. Further, in experiment [1], the “growth of SU-DHL6 cell xenograft tumors” value was “significantly inhibited the growth”. In addition, the “apoptosis of TMD8 and SU-DHL4 cells” value in the experiment on TMD8 and SU-DHL4 cells is reported as “induced apoptosis”. Besides, in the experiment on NF-κB signalling pathway, the “NF-κB pathway activation in HBL1 and TMD8 cells” value is given as “repressed NF-κB pathway activation”; the “NF-κB pathway activation in OCI-LY1 cells” value is “but not in OCI-LY1 cells”.
